Experimental data: PubChem BioAssay AID248 (DTP/NCI, 2004)
Values joined by “and” are separate entries in the source; they are usually repeats but may differ in a detail not shown here. Equal entries are not always repeated. Inconclusive results and toxic doses are left out. Rule as the data show it: active = T/C of 150% or more; inactive = T/C below 125%.

Test system: L1210 leukemia ip in BDF1 mice, survival T/C
Experiment: NCI In Vivo Anticancer Drug Screen. Data for tumor model L1210 Leukemia (intraperitoneal) in B6D2F1 (BDF1) mice
Conditions: endpoint: mean survival time, higher = longer survival
How it was run: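 Tumor was transplanted into mice, which were then dosed with test compound or vehicle alone. Survival was recorded for each group, and the treated figure was expressed relative to the control figure.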

[1] = dose: 100.0 mg/kg/injection, schedule: Q04DX003 (ip), vehicle: saline with Tween-80
[2] = dose: 200.0 mg/kg/injection, schedule: Q04DX003 (ip), vehicle: saline with Tween-80
[3] = dose: 400.0 mg/kg/injection, schedule: Q04DX003 (ip), vehicle: saline with Tween-80
[4] = dose: 100.0 mg/kg/injection, schedule: Q01DX001 (ip), vehicle: saline
[5] = dose: 100.0 mg/kg/injection, schedule: Q01DX009 (ip), vehicle: saline
[6] = dose: 200.0 mg/kg/injection, schedule: Q01DX001 (ip), vehicle: saline
[7] = dose: 200.0 mg/kg/injection, schedule: Q01DX009 (ip), vehicle: saline
[8] = dose: 400.0 mg/kg/injection, schedule: Q01DX001 (ip), vehicle: saline
[9] = dose: 400.0 mg/kg/injection, schedule: Q01DX009 (ip), vehicle: saline
[10] = dose: 100.0 mg/kg/injection, schedule: Q01DX009 (ip), vehicle: saline with Tween-80
[11] = dose: 200.0 mg/kg/injection, schedule: Q01DX009 (ip), vehicle: saline with Tween-80

Measured: T/C

CN1CCC(OC(c2ccccc2)c2ccccc2)CC1
inactive: dose: 20.0 mg/kg/injection, schedule: Q01DX009 (ip), vehicle: saline 107 % of control | dose: 20.0 mg/kg/injection, schedule: Q04DX003 (ip), vehicle: saline 108 % of control | dose: 40.0 mg/kg/injection, schedule: Q01DX009 (ip), vehicle: saline 113 % of control | dose: 40.0 mg/kg/injection, schedule: Q04DX003 (ip), vehicle: saline 105 % of control | dose: 80.0 mg/kg/injection, schedule: Q04DX003 (ip), vehicle: saline 95 % of control

COC(=O)C1C=Cc2ccccc21 (configuration not stated)
inactive: [1] 104 % of control | [2] 93 % of control | [3] 102 % of control

c1ccc2c(c1)ccc1c(C3CO3)cccc12 (configuration not stated)
inactive: dose: 100.0 mg/kg/injection, schedule: Q04DX002 (ip), vehicle: saline with Tween-80 101 % of control | dose: 200.0 mg/kg/injection, schedule: Q04DX002 (ip), vehicle: saline with Tween-80 98 % of control | dose: 400.0 mg/kg/injection, schedule: Q04DX002 (ip), vehicle: saline with Tween-80 88 % of control

COC(=O)[C@@]12OC[C@]34[C@H]([C@@H](O)[C@@H]1O)[C@@]1(C)CC(=O)C(O)=C(C)[C@@H]1C[C@H]3OC(=O)[C@H](OC(=O)/C=C(\C)C(C)C)[C@@H]24
inactive: dose: 0.03 mg/kg/injection, schedule: Q01DX009 (ip), vehicle: other 111 % of control | dose: 0.03 mg/kg/injection, schedule: Q01DX009 (ip), vehicle: saline with Tween-80 111 % of control | dose: 0.03 mg/kg/injection, schedule: Q03HX024 (ip), vehicle: other 107 % of control | dose: 0.03 mg/kg/injection, schedule: Q03HX024 (ip), vehicle: saline with Tween-80 108 % of control | dose: 0.06 mg/kg/injection, schedule: Q01DX009 (ip), vehicle: other 111 % of control and 116 % of control | dose: 0.06 mg/kg/injection, schedule: Q01DX009 (ip), vehicle: saline with Tween-80 110 % of control and 120 % of control | dose: 0.06 mg/kg/injection, schedule: Q03HX024 (ip), vehicle: other 107 % of control | dose: 0.06 mg/kg/injection, schedule: Q03HX024 (ip), vehicle: saline with Tween-80 114 % of control | dose: 0.12 mg/kg/injection, schedule: Q01DX009 (ip), vehicle: other 118 % of control and 123 % of control | dose: 0.12 mg/kg/injection, schedule: Q01DX009 (ip), vehicle: saline with Tween-80 117 % of control | dose: 0.12 mg/kg/injection, schedule: Q03HX024 (ip), vehicle: other 121 % of control | dose: 0.12 mg/kg/injection, schedule: Q03HX024 (ip), vehicle: saline with Tween-80 116 % of control | dose: 0.25 mg/kg/injection, schedule: Q01DX009 (ip), vehicle: saline with Tween-80 121 % of control | dose: 0.25 mg/kg/injection, schedule: Q03HX024 (ip), vehicle: other 121 % of control | dose: 0.5 mg/kg/injection, schedule: Q01DX009 (ip), vehicle: other 117 % of control | dose: 0.5 mg/kg/injection, schedule: Q01DX009 (ip), vehicle: saline with Tween-80 123 % of control | dose: 0.6 mg/kg/injection, schedule: Q01DX009 (ip), vehicle: saline + alcohol 96 % of control | dose: 0.8 mg/kg/injection, schedule: Q01DX009 (ip), vehicle: saline + alcohol 112 % of control | dose: 1.0 mg/kg/injection, schedule: Q01DX009 (ip), vehicle: other 122 % of control | dose: 1.3 mg/kg/injection, schedule: Q01DX009 (ip), vehicle: saline + alcohol 114 % of control | dose: 2.0 mg/kg/injection, schedule: Q01DX009 (ip), vehicle: saline + alcohol 123 % of control | dose: 8.0 micrograms/kg/injection, schedule: Q01DX009 (ip), vehicle: saline + alcohol 91 % of control | dose: 16.0 micrograms/kg/injection, schedule: Q01DX009 (ip), vehicle: saline + alcohol 100 % of control | dose: 31.0 micrograms/kg/injection, schedule: Q01DX009 (ip), vehicle: saline + alcohol 109 % of control | dose: 62.0 micrograms/kg/injection, schedule: Q01DX009 (ip), vehicle: saline + alcohol 114 % of control | dose: 250.0 micrograms/kg/injection, schedule: Q01DX009 (ip), vehicle: saline + alcohol 115 % of control | dose: 500.0 micrograms/kg/injection, schedule: Q01DX009 (ip), vehicle: saline + alcohol 114 % of control | dose: 1000.0 micrograms/kg/injection, schedule: Q01DX009 (ip), vehicle: saline + alcohol 120 % of control | dose: 2000.0 micrograms/kg/injection, schedule: Q01DX009 (ip), vehicle: saline + alcohol 117 % of control

O=Cc1ccc(OC(=O)Nc2ccccc2F)cc1
inactive: [4] 96 % of control | [5] 98 % of control and 101 % of control | dose: 100.0 mg/kg/injection, schedule: Q04DX002 (ip), vehicle: saline 103 % of control and 107 % of control | [6] 99 % of control | [7] 106 % of control and 112 % of control | dose: 200.0 mg/kg/injection, schedule: Q04DX002 (ip), vehicle: saline 100 % of control and 104 % of control | [8] 92 % of control | [9] 96 % of control | dose: 400.0 mg/kg/injection, schedule: Q04DX002 (ip), vehicle: saline 93 % of control and 109 % of control

Cc1ccc(N2CCN(C(C)(C)C#N)CC2)cc1
inactive: [4] 102 % of control | [6] 98 % of control

CC(O)C(O)C(=O)OCc1ccccc1 (configuration not stated)
inactive: [5] 117 % of control | dose: 100.0 mg/kg/injection, schedule: Q04DX003 (ip), vehicle: saline 101 % of control | [7] 102 % of control | dose: 200.0 mg/kg/injection, schedule: Q04DX003 (ip), vehicle: saline 103 % of control | [9] 110 % of control | dose: 400.0 mg/kg/injection, schedule: Q04DX003 (ip), vehicle: saline 98 % of control

CCN(CC#CCOc1ccc(Cl)cc1)c1ccccc1
inactive: dose: 25.0 mg/kg/injection, schedule: Q04DX002 (ip), vehicle: Klucel (hydroxypropylcellulose) (HPC) 99 % of control | dose: 50.0 mg/kg/injection, schedule: Q04DX002 (ip), vehicle: Klucel (hydroxypropylcellulose) (HPC) 93 % of control | dose: 100.0 mg/kg/injection, schedule: Q04DX002 (ip), vehicle: Klucel (hydroxypropylcellulose) (HPC) 93 % of control

CC1OC2CCCCC2O1 (configuration not stated)
inactive: dose: 50.0 mg/kg/injection, schedule: Q01DX009 (ip), vehicle: saline with Tween-80 97 % of control | [10] 97 % of control | [11] 94 % of control

CC(=O)OC[C@]12CCC(C)=CC1O[C@@H]1C(OC(C)=O)[C@@H](O)[C@@]2(C)[C@]12CO2 (some centres not stated)
inactive: dose: 0.4 mg/kg/injection, schedule: Q01DX009 (ip), vehicle: other 97 % of control | dose: 0.8 mg/kg/injection, schedule: Q01DX009 (ip), vehicle: other 114 % of control | dose: 1.6 mg/kg/injection, schedule: Q01DX009 (ip), vehicle: other 114 % of control | dose: 3.2 mg/kg/injection, schedule: Q01DX009 (ip), vehicle: other 116 % of control

O=C1CCCCC1Nc1ccc(Br)cc1 (configuration not stated)
inactive: [4] 98 % of control | [6] 98 % of control | [8] 98 % of control

Cc1cccc(/C=N\OCc2ccccc2)n1
inactive: [1] 98 % of control | [2] 98 % of control | [3] 98 % of control

NC(=O)c1ccnn1C1OC(CO)C(O)C1O (configuration not stated)
inactive: dose: 50.0 mg/kg/injection, schedule: Q01DX005 (ip), vehicle: water 102 % of control | dose: 100.0 mg/kg/injection, schedule: Q01DX005 (ip), vehicle: water 102 % of control | dose: 200.0 mg/kg/injection, schedule: Q01DX005 (ip), vehicle: water 105 % of control

CCCCCCCCCCC(=O)CCCC
inactive: [10] 100 % of control | [11] 102 % of control | dose: 400.0 mg/kg/injection, schedule: Q01DX009 (ip), vehicle: saline with Tween-80 104 % of control

CCOC(=O)NC(=S)n1ncnc1N
inactive: dose: 6.25 mg/kg/injection, schedule: Q01DX009 (ip), vehicle: saline with Tween-80 105 % of control | dose: 12.5 mg/kg/injection, schedule: Q01DX009 (ip), vehicle: saline with Tween-80 97 % of control | dose: 25.0 mg/kg/injection, schedule: Q01DX009 (ip), vehicle: saline with Tween-80 100 % of control | dose: 35.0 mg/kg/injection, schedule: Q01DX009 (ip), vehicle: saline with Tween-80 86 % of control

O=C(NCCCCC(NC(=O)c1ccccc1)C(=O)NCCCCCCNCCCCCCNC(=O)C(CCCCNC(=O)c1ccccc1)NC(=O)c1ccccc1)c1ccccc1 (configuration not stated)
inactive: dose: 10.0 mg/kg/injection, schedule: Q01DX Z (ip), vehicle: saline 96 % of control | dose: 30.0 mg/kg/injection, schedule: Q01DX Z (ip), vehicle: saline 102 % of control | dose: 100.0 mg/kg/injection, schedule: Q01DX Z (ip), vehicle: saline 100 % of control | dose: 300.0 mg/kg/injection, schedule: Q01DX Z (ip), vehicle: saline 100 % of control
